SMILES strings stand for the structures.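 Exposure lasted 48 hours, with cells grown in 96-well plates and compounds tested at five concentrations. GI50 marks 50% less growth.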 Calls of active or inactive are those of the source. No stated cut-off is given here; in the data, active = GI50 up to about 1.1 µM and inactive = higher. Where only a bound is given, the exact number is not on record here.

Some test systems named below: HCT-15; HT-29; KM12; LOX IMVI; MOLT-4; Malme-3M; OVCAR-3; OVCAR-8; RPMI-8226; SF-295; SK-MEL-28; SK-MEL-2; SN12C; SNB-19; SNB-75; SW-620; TK-10; UACC-62.
Experiment in all cases: NCI tumour cell line growth inhibition, 48 h

As for `COc1ccc(-c2ccccc2)c(N/N=C2\CCCNC2=O)c1`, the GI50 in the assay on HCT-15 was greater than 100 µM; with HT-29, > 100 µM (inactive); in the assay on KM12 it was > 100 µM (inactive); with LOX IMVI it was > 100 µM (inactive); with MOLT-4 it was > 100 µM (inactive); in the assay on Malme-3M, > 100 µM (inactive). In addition, the GI50 in the assay on OVCAR-3, in the assay on OVCAR-8, with RPMI-8226, in the assay on SF-295, with SK-MEL-28 and in the assay with SK-MEL-2 was > 100 µM (inactive) each time. For the same compound, the GI50 is > 100 µM (inactive) with SN12C; 81.7 µM (inactive) with SNB-19; 32.8 µM (inactive) with SNB-75; > 100 µM (inactive) in the assay with SW-620; > 100 µM (inactive) in the assay on TK-10; 49 µM (inactive) in the assay with UACC-62.

With `O=S1(=O)OCCOS(=O)(=O)C1(Br)Br`, the GI50 in the assay on HT-29, in the assay with KM12, with MOLT-4, in the assay on Malme-3M, in the assay on OVCAR-3 and in the assay with OVCAR-8 was > 100 µM (inactive) each time. For the same compound, the GI50 in the assay on RPMI-8226 is > 100 µM (inactive); in the assay on SF-295, > 100 µM (inactive); in the assay on SK-MEL-28, > 100 µM (inactive); in the assay on SK-MEL-2, > 100 µM (inactive); with SN12C, > 100 µM (inactive); with SNB-19, 80.7 µM (inactive). The GI50 with SNB-75, in the assay with SW-620, with TK-10 and in the assay on UACC-62 was > 100 µM (inactive) each time.

In the case of `O=[N+]([O-])c1nccn1COCCF`, the GI50 in the assay on HCT-15 was greater than 100 µM; in the assay with HT-29 it was > 100 µM (inactive); in the assay with KM12 it was > 100 µM (inactive); in the assay on LOX IMVI, > 100 µM (inactive); in the assay on MOLT-4, > 100 µM (inactive); in the assay on Malme-3M, > 100 µM (inactive). Besides, the GI50 with OVCAR-3, in the assay on OVCAR-8, with RPMI-8226, in the assay on SF-295, in the assay with SK-MEL-28 and in the assay on SK-MEL-2 was > 100 µM (inactive) throughout. For the same compound, the GI50 in the assay with SN12C is > 100 µM (inactive); in the assay on SNB-19 it was > 100 µM (inactive); with SNB-75 it was 64.6 µM (inactive); with SW-620, > 100 µM (inactive); in the assay on TK-10, > 100 µM (inactive); in the assay on UACC-62 it was > 100 µM (inactive).

With `COC(=O)/C(C=O)=C/Sc1ccccc1`, the GI50 is 22.6 µM with HCT-15; 25.5 µM (inactive) in the assay with HT-29; 24.1 µM (inactive) in the assay with KM12; 8.65 µM (inactive) with LOX IMVI; > 100 µM (inactive) in the assay with MOLT-4; 21.3 µM (inactive) in the assay on OVCAR-3. Besides, the GI50 in the assay with OVCAR-8 was 15.6 µM (inactive); in the assay on RPMI-8226 it was 65.5 µM (inactive); with SF-295, 30.1 µM (inactive); with SK-MEL-28 it was 19.4 µM (inactive); with SK-MEL-2, 30.9 µM (inactive); in the assay with SN12C, 19.7 µM (inactive). In addition, the GI50 is 54.5 µM (inactive) in the assay on SNB-19; 18.5 µM (inactive) with SNB-75; 37.9 µM (inactive) in the assay on SW-620; 40.6 µM (inactive) in the assay on TK-10; 22.2 µM (inactive) in the assay with UACC-62.

On to `O=C(c1cc2ccccc2[nH]1)C(O)(c1cc2ccccc2[nH]1)c1cc2ccccc2[nH]1`, for which the GI50 is greater than 246 µM in the assay on HCT-15; > 246 µM (inactive) with HT-29; > 246 µM (inactive) in the assay with KM12; > 246 µM (inactive) in the assay with LOX IMVI; > 246 µM (inactive) with MOLT-4; > 246 µM (inactive) with Malme-3M. The GI50 in the assay with OVCAR-3 was 20 µM (inactive); in the assay on OVCAR-8, > 246 µM (inactive); in the assay on RPMI-8226, > 246 µM (inactive); in the assay with SF-295, 154 µM (inactive); in the assay on SK-MEL-28 it was > 246 µM (inactive); in the assay on SK-MEL-2, > 246 µM (inactive). In addition, the GI50 with SN12C, in the assay with SNB-19, in the assay on SW-620, in the assay on TK-10 and in the assay with UACC-62 was > 246 µM (inactive) throughout.

Take `COc1ccc(-c2cc(O)c3cc(Cl)ccc3n2)cc1`: the GI50 in the assay on HT-29 was > 100 µM (inactive); in the assay with KM12, 91.8 µM (inactive); in the assay on LOX IMVI, > 100 µM (inactive); in the assay with MOLT-4, > 100 µM (inactive); in the assay with Malme-3M it was > 100 µM (inactive); in the assay on OVCAR-3, > 100 µM (inactive). Also, the GI50 in the assay on OVCAR-8, in the assay on RPMI-8226, in the assay on SF-295, in the assay on SK-MEL-28, in the assay with SN12C and in the assay on SNB-19 was > 100 µM (inactive) in each case. In addition, the GI50 in the assay with SNB-75, with SW-620, in the assay on TK-10 and with UACC-62 was > 100 µM (inactive) each time.

In the case of `O=C(CC1(O)C(=O)Nc2ccc(Br)cc21)c1cccc([N+](=O)[O-])c1` (stereo not given), the GI50 is 56 µM with HCT-15; 32.7 µM (inactive) in the assay on HT-29; 42.6 µM (inactive) in the assay with KM12; 32.4 µM (inactive) in the assay on LOX IMVI; 24.9 µM (inactive) with MOLT-4; > 100 µM (inactive) in the assay on Malme-3M. Moreover, the GI50 is 38.7 µM (inactive) in the assay on OVCAR-3; 35.5 µM (inactive) in the assay with OVCAR-8; 18.3 µM (inactive) with RPMI-8226; 59 µM (inactive) with SF-295; 35.8 µM (inactive) in the assay on SK-MEL-28; 54.7 µM (inactive) in the assay on SK-MEL-2. Further, the GI50 in the assay on SN12C was > 100 µM (inactive); in the assay on SNB-19, 61.5 µM (inactive); in the assay with SNB-75, 26.7 µM (inactive); in the assay with SW-620, 37.8 µM (inactive); in the assay with TK-10, > 100 µM (inactive).

`CN1CCc2cc(O)c3cc2C1Cc1ccc(cc1)Oc1cc(ccc1O)CC1c2c(cc4c(c2O3)OCO4)CCN1C` (stereo not given): the GI50 is 22.5 µM in the assay on HCT-15; 21.2 µM (inactive) in the assay on HT-29; 29.9 µM (inactive) in the assay on KM12; 24.3 µM (inactive) in the assay with MOLT-4; 75 µM (inactive) with OVCAR-3; 19.8 µM (inactive) in the assay with OVCAR-8. In addition, the GI50 in the assay with SF-295 is 21.5 µM (inactive); in the assay on SK-MEL-28, 21.3 µM (inactive); with SK-MEL-2 it was 16.1 µM (inactive); with SN12C, 32.9 µM (inactive); with SNB-19 it was 44.6 µM (inactive); with SNB-75, 13.4 µM (inactive). In addition, the GI50 in the assay on TK-10 and with UACC-62 was 24.2 µM (inactive) each time.

As for `O=C(CCc1nnc2s/c(=C\c3ccccc3Cl)c(=O)n12)Nc1cc(Cl)ccc1Cl`, the GI50 in the assay on HCT-15 is greater than 100 µM; in the assay with HT-29 it was > 100 µM (inactive); with KM12, > 100 µM (inactive); with LOX IMVI, > 100 µM (inactive); in the assay with MOLT-4, > 100 µM (inactive); with Malme-3M, > 100 µM (inactive). The GI50 in the assay on OVCAR-3, in the assay on OVCAR-8, in the assay on RPMI-8226, with SF-295, with SK-MEL-28 and in the assay on SK-MEL-2 was > 100 µM (inactive) throughout. Further, the GI50 in the assay with SN12C, with SNB-19, in the assay on SW-620, with TK-10 and with UACC-62 was > 100 µM (inactive) in each case.

Values taken from ChEMBL document CHEMBL1201862, “PubChem BioAssay data set” (2004).
